From patent US20090181110A1, “Compositions from Garcinia as Aromatase Inhibitors for Breast Cancer Chemoprevention and Chemotherapy” (THE OHIO STATE UNIVERSITY RESEARCH FOUNDATION, priority 2007, published 2009)
In brackets after ≈: the same amount, converted by molar mass. Several values for one entry are separate records, joined by “and”; a condition that tells them apart may be missing. Equal values may be shown once. Read-outs that look alike come from different tables or passages of the source.

Columns and labels:
quinone reductase = assay: Quinone reductase (QR) induction assay in Hepa 1c1c7 cells; format: cell-based, murine
Excerpt: Thus compound 21 is a candidate for use as a cancer chemopreventive agent.

[1] = biological target: T1, aromatase (human placental microsomes) (Homo sapiens, UniProt P11511); assay: Noncellular, enzyme-based, microsomal aromatase bioassay; format: biochemical; settings: for Noncellular Bioassay PCA 20 μg/mL: percent control activity; for IC50: six concentrations 1-100 μM;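 as to all read-outs here: aromatase activity read as tritiated water release by scintillation counting after 15 min at 37 °C, relative to DMSO vehicle, with boiled microsomes giving background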
T1 construct: Microsomes were obtained from the remaining tissue as described; from tissue; host or cells: human term placenta (microsomal fraction)
T1 sequence (P11511 1-503): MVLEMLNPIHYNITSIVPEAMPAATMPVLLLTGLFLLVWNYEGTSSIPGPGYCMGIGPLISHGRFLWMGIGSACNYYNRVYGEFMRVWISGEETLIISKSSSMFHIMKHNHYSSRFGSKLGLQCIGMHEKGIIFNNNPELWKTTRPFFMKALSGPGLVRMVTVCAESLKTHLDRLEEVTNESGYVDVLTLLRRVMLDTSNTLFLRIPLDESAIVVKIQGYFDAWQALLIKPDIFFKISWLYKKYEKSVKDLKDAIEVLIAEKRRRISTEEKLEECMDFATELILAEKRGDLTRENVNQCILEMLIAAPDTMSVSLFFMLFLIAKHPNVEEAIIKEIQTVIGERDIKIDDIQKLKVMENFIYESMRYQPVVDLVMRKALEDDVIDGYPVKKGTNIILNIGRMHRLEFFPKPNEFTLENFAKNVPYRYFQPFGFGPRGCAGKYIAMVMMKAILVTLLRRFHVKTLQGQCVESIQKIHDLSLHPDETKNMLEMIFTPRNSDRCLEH

[2] = Peroxynitrite scavenging activity, authentic ONOO−
Procedure: (§1) ONOO-scavenging activity was measured by monitoring the oxidation of nonfluorescent DHR 123 to highly fluorescent rhodamine 123 using the modified method of Kooy et al. Briefly, DHR 123 (5 mM) in EtOH, purged with nitrogen, was stored at −80° C. as a stock solution. This solution was not exposed to light, prior to the study. The rhodamine buffer (pH 7.4) consisted of 50 mM sodium phosphate dibasic, 50 mM sodium phosphate monobasic, 90 mM sodium chloride, 5 mM potassium chloride, and 100 μM DTPA. The final concentration of DHR 123 was 5 μM. The buffer in this assay was prepared before use and placed on ice. The concentrations of compounds tested were in the range from 0.2 to 100 μM in 10% DMSO. The background and final fluorescent intensities were measured 5 min after treatment with and without the addition of authentic ONOO— in 0.3 N sodium hydroxide (10 μM) or SIN-1 in deionized water (10 μM). DHR 123 was oxidized rapidly by ONOO—, superoxide anion (O2.-), and nitric oxide (NO.). The fluorescence intensity of oxidized DHR 123 was measured with an LS55 luminescence spectrometer (Perkin-Elmer, Boston, Mass.) at the excitation and emission wavelengths of 480 and 530 nm, respectively. […] DL-Penicillamine was used as a positive control.

[3] = test system: DMBA-induced preneoplastic lesions; assay: Mouse mammary organ culture (MMOC) assay; format: cell-based; settings: for percent inhibition of DMBA-induced preneoplastic lesions: 10 μg/mL
Procedure: This assay was carried out according to an established protocol disclosed in the art. In brief, 4-week-old BALB/c female mice (Charles River, Wilmington, Mass.) were pretreated for 9 days with 1 μg of estradiol and 1 mg of progesterone. On the 10th day, the mice were sacrificed and the second pair of thoracic mammary glands was dissected on silk and transferred to 60 mm culture dishes containing 5 mL of Waymouth's 752/1 MB medium supplemented with streptomycin, penicillin, and L-glutamine. The glands were incubated for 10 days (37° C., 95% O2 and 5% CO2) in the presence of growth-promoting hormones (5 μg of insulin, 5 μg of prolactin, 1 μg of aldosterone, and 1 μg of hydrocortisone per milliliter of medium). Glands were exposed to 2 μg/mL 7,12-dimethylbenz[a]anthracene (DMBA) between 72 and 96 h. After their exposure, glands were rinsed and transferred to new dishes with fresh medium. The fully differentiated glands were then permitted to regress by withdrawing all hormones except insulin for 14 additional days. Test compounds were present in the medium during days 1-10 of culture; mammary glands were scored for the incidence of lesions.

[4] = Peroxynitrite scavenging activity, SIN-1-derived ONOO−
Procedure: as §1

[5] = test system: DMBA-induced preneoplastic lesions; settings: background statement; cited from earlier work
[6] = test system: preneoplastic lesions (aberrant crypt foci); settings: recent work, background statement, cited from earlier work
[7] = biological target: T2, aromatase in SK-BR-3 cells (Homo sapiens, UniProt P11511); assay: SK-BR-3 cell-based aromatase bioassay
T2 construct: SK-BR-3 hormone-independent human breast cancer cells that overexpress aromatase; endogenous in cells; host or cells: SK-BR-3 human breast cancer cells
T2 sequence (P11511 1-503): T1 sequence (P11511 1-503)

SK-BR-3 cells = assay: SK-BR-3 cell-based cytotoxicity bioassay (MTT cell viability); design: species or system human; settings: 50 μM

COc1c(O)cc2oc3cc4c(c(O)c3c(=O)c2c1CC=C(C)C)C=CC(C)(C)O4 [Compound 24, mangostanin]
CD (concentration required to double QR induction activity) (quinone reductase): 0.95 µg/mL

cudraxanthone G [Compound 3]
Noncellular Bioassay PCA 20 μg/mL [1]: 57.8 PCA

COc1c(O)cc2oc3cc(O)c(CC=C(C)C)c(O)c3c(=O)c2c1CC=C(C)C [Compound 10, α-mangostin]
antioxidant activity, in words (authentic ONOO−) [2]: potent antioxidant activity
IC50 in dose-response MMOC assay [3]: 1.0 µg/mL (≈ 2.44 µM)
percent inhibition of DMBA-induced preneoplastic lesions [3]: 57.1%
IC50 ([3]; same value in μM, read-out: IC50 in dose-response MMOC assay): 2.44 µM
antioxidant activity, in words (SIN-1-derived ONOO−) [4]: potent antioxidant activity
aromatase inhibiting activity, in words [1]: greatest aromatiase inhibiting activity
Noncellular Bioassay PCA 20 μg/mL [1]: 22.2 PCA
IC50 [1]: 20.7 µM
alveolar duct formation in mouse mammary organ culture model, in words [5]: inhibit alveolar duct formation
inhibition of preneoplastic lesions in colon carcinogenesis model, in words [6]: suppress the carcinogen-induced formation of aberrant crypt foci
inhibition of preneoplastic lesions in colon carcinogenesis model, in words ([6]; listed as crude α-mangostin (10) preparation): efficacy in inhibiting preneoplastic lesions
Cell-based Bioassay PCA 50 μM [7]: 59.4 PCA
Cytotoxicity % cell surv. (SK-BR-3 cells): 18.4%

1-isomangostin [Compound 9]
Noncellular Bioassay PCA 20 μg/mL [1]: 52.6 PCA

COc1ccc([C@@H]2COc3c(ccc4c3C=CC(C)(C)O4)C2)c(O)c1 [4′O-methylglabridin]
aromatase inhibiting activity, in words [1]: show results that are supportive of these compounds having utility as aromatase inhibitors

CC(C)=CCC/C(C)=C/Cc1c(O)cc2oc3c(O)cccc3c(=O)c2c1O [Compound 12, mangostinone]
Noncellular Bioassay PCA 20 μg/mL [1]: 78.8 PCA

8-hydroxycudraxanthone G [Compound 1]
antioxidant activity, in words (authentic ONOO−) [2]: potent antioxidant activity
antioxidant activity, in words (SIN-1-derived ONOO−) [4]: potent antioxidant activity
Noncellular Bioassay PCA 20 μg/mL [1]: 55.1 PCA

N#Cc1ccc(C(c2ccc(C#N)cc2)n2cncn2)cc1 [LET, Letrozole, reference compound]
Cell-based Bioassay PCA (positive control) ([7]; 10 nM letrozole): 7.4 PCA

CC(C)=CCC/C(C)=C/Cc1c(O)cc2oc3c(O)ccc(O)c3c(=O)c2c1O [Compound 13, smeathxanthone A]
antioxidant activity, in words (authentic ONOO−) [2]: potent antioxidant activity
antioxidant activity, in words (SIN-1-derived ONOO−) [4]: potent antioxidant activity
Noncellular Bioassay PCA 20 μg/mL [1]: 80.8 PCA

COc1c(O)cc2oc3cc(O)c(CC=C(C)C)c(O)c3c(=O)c2c1CCC(C)(C)O [Compound 6, garcinone D]
aromatase inhibiting activity, in words [1]: greatest aromatiase inhibiting activity
Noncellular Bioassay PCA 20 μg/mL [1]: 10.0 PCA
IC50 [1]: 5.16 µM and 5.2 µM
Cell-based Bioassay PCA 50 μM [7]: 50.7 PCA
Cytotoxicity % cell surv. (SK-BR-3 cells): 89.4%

CC(C)=CCc1c(O)ccc2oc3cc4c(c(O)c3c(=O)c12)CC(C(C)(C)O)O4 (stereo not drawn) [Compound 22, 2,3-dihydro-4,7-dihydroxy-2-(2-hydroxypropan-2-yl)-6-(3-methylbut-2-enyl)furo[3,2-b]xanthen-5-one]
CD (concentration required to double QR induction activity) (quinone reductase): 2.2 µg/mL

CC(C)=CCc1c(O)c(CC=C(C)C)c2oc3c(O)ccc(O)c3c(=O)c2c1O [Compound 8, gartanin]
Noncellular Bioassay PCA 20 μg/mL [1]: 75.9 PCA

O=C(/C=C/c1ccc(O)cc1)c1ccc(O)cc1O [isoliquiritigenin, reference compound]
CD (concentration required to double QR induction activity) (quinone reductase): 1.1 µg/mL

CC(C)=CCc1c(O)cc2oc3ccc(O)c(CC=C(C)C)c3c(=O)c2c1O [Compound 23, 1,3,7-trihydroxy-2,8-di-(3-methylbut-2-enyl)xanthone]
CD (concentration required to double QR induction activity) (quinone reductase): 0.68 µg/mL

garcinone E [Compound 7]
aromatase inhibiting activity, in words [1]: greatest aromatiase inhibiting activity
Noncellular Bioassay PCA 20 μg/mL [1]: 23.9 PCA
IC50 [1]: 25.1 µM
Cell-based Bioassay PCA 50 μM [7]: 32.3 PCA
Cytotoxicity % cell surv. (SK-BR-3 cells): 52.3%

CC(C)=CCc1c(O)cc2oc3ccc4c(c3c(=O)c2c1O)C(O)C(C(C)(C)O)O4 (stereo not drawn) [Compound 21, 1,2-dihydro-1,8,10-trihydroxy-2-(2-hydroxypropan-2-yl)-9-(3-methylbut-2-enyl)furo[3,2-a]xanthen-11-one]
CD (concentration required to double QR induction activity) (quinone reductase): 1.3 µg/mL

8-deoxygartanin [Compound 4]
Noncellular Bioassay PCA 20 μg/mL [1]: 82.6 PCA

CC(C)=CCc1c(O)cc2oc3cc(O)c(O)c(CC=C(C)C)c3c(=O)c2c1O [Compound 11, γ-mangostin]
antioxidant activity, in words (authentic ONOO−) [2]: potent antioxidant activity
percent inhibition of DMBA-induced preneoplastic lesions [3]: 42.9%
antioxidant activity, in words (SIN-1-derived ONOO−) [4]: potent antioxidant activity
aromatase inhibiting activity, in words [1]: greatest aromatiase inhibiting activity
Noncellular Bioassay PCA 20 μg/mL [1]: 4.7 PCA
IC50 [1]: 6.88 µM and 6.9 µM
IC50 [7]: 4.97 ± 1.9 µM
Cell-based Bioassay PCA 50 μM [7]: −0.5 PCA

CC(C)=CCc1c(O)cc2oc3c(CC=C(C)C)c(O)c4c(c3c(=O)c2c1O)C=CC(C)(C)O4 [Compound 14, tovophyllin A]
Noncellular Bioassay PCA 20 μg/mL [1]: 74.7 PCA

CC(C)=CCc1cc(/C=C/C(=O)c2ccc3c(c2O)C=CC(C)(C)O3)ccc1O [paratocarpin B]
aromatase inhibiting activity, in words [1]: show results that are supportive of these compounds having utility as aromatase inhibitors
